Columns and labels:
[1] = test system: isolated mouse liver mitochondria; experiment: Mitochondrial swelling assay; conditions: potassium acetate buffer with valinomycin
Experimental: Mitochondrial swelling was measured in non-respiring mouse liver mitochondria incubated in buffered isotonic potassium acetate in the presence of valinomycin (24,25). […] Absorbance of the mitochondrial suspension before and after addition test compounds was measured every 10 seconds using a Varian Cary 300 spectrophotometer (Agilent Technologies, Santa Clara, Calif.). Swelling was recorded from the decrease in absorbance at 600 nm and expressed as percentage from initial reading after addition of mitochondria.
Mitochondrial membrane swelling was detected as decrease in absorbance at 600 nm following the addition of COH-SR4 or FCCP alone or in the presence of cysclosporin A (CSA, 1 μM) on isolated mouse liver mitochondria respiring on succinate (10 mM) in the presence of rotenone (1 μM) and valinomycin (5 μM) in potassium acetate buffer. […] Arrow indicates time of addition of test compounds into the mitochondria suspension.

GST = GST activity towards CDNB in lung cancer cell supernatants; type: biochemical, human; conditions: H1417, H1618, H520, H358 supernatants; 1 mM GSH and CDNB
Experimental: In the context of the elevation of GSTs in lung cancer, the impact of COH-SR4 on the catalytic activity of GSTs towards 1-chloro 2,4-dinitro benzene (CDNB), a model substrate used for GST activity was analyzed. GST activity towards 1-chloro 2,4-dinitro benzene (CDNB) and its inhibition by COH-SR4 was performed in 28000×g crude supernatant prepared from H1417, H1618, H520 and H358 cells. The inhibitory effect of COH-SR4 on GST was studied at a fixed concentration of GSH and CDNB (1 mM each) and varying concentrations of inhibitor. The enzymes were pre-incubated with the inhibitor for 5 min at 37° C. prior to the addition of the substrates. The experiment was repeated three times and similar results were obtained. […] Human liver purified GST was used as a control (FIG. 79B, inset). GSTs are a class of phase II detoxifying enzymes, which regulate detoxification of administered chemotherapy drugs for further efflux out of cells by transport proteins. The GST inhibition leads to accumulation of toxic end-products of lipid peroxidation due to decreased efflux of GS-HNE which also reinforces the GST inhibition by feedback inhibition. The over-expression of GSTs is a common phenomenon associated with malignant progression of many cancers including lung cancer, melanomas skin and prostate cancers. […]

O=C(Nc1cc(Cl)cc(Cl)c1)Nc1cc(Cl)cc(Cl)c1 [COH-SR4, 1,3-bis(3,5-dichlorophenyl) urea]
mitochondrial swelling (absorbance at 600 nm) [1]: mitochondrial swelling was observed | total GST activity towards CDNB (GST): inhibited the total GST activity to a significant extent
